Measured values: patent publication US8722616B2, “Anti-HIV peptides and methods of use thereof” (priority 2009, dated 2014)
Non-standard residues stand in square brackets, D forms with d. Residues, ends and D or L forms follow the SMILES beside them. No end group written: not given here. Phg = N[C@H](C(=O)O)c1ccccc1

How the values were obtained:
HIV-1IIIB = assay: microbe, parasite or virus in culture
Method: (§1) Anti-HIV cytopathic effect inhibition assays were conducted as described (Buckheit et al. (1995) Antimicrob. Agents Chemother., 39:2718-2727). In brief, serially diluted peptides were added to a 96-well round bottom microtiter plate in triplicate. CEM-SS cells at a concentration of 2.5×10^3 cells per well and HIV-1IIIB at the appropriate pre-determined titer were sequentially added to the microtiter plate. The cultures were incubated at 5% CO2/37° C. for six days. Following the incubation, the microtiter plates were stained with XTT tetrazolium dye to evaluate the efficacy and toxicity of the test compound(s).
as §1, with “Cytopathic Effect (CPE) Inhibition Assay: The CPE assay was performed” for “Anti-HIV cytopathic effect inhibition assays were conducted”, “as previously” for “as”, “Briefly,” for “In brief,”, “compound was” for “peptides were”

CEM-SS cells = assay: Cytotoxicity in the CPE assay (XTT, 50% reduction in cell viability)
Method: as §1
as §1, with “Cytopathic Effect (CPE) Inhibition Assay: The CPE assay was performed” for “Anti-HIV cytopathic effect inhibition assays were conducted”, “as previously” for “as”, “Briefly,” for “In brief,”, “compound was” for “peptides were”

in vitro = settings: human
Method: as §1
as §1, with “Cytopathic Effect (CPE) Inhibition Assay: The CPE assay was performed” for “Anti-HIV cytopathic effect inhibition assays were conducted”, “as previously” for “as”, “Briefly,” for “In brief,”, “compound was” for “peptides were”

[1] = Table 1, CEM-SS cells, HIV-1IIIB, six days, 50% inhibition of virus replication
[2] = read-out: TC50, Table 1, CEM-SS cells, six days, 50% reduction in cell viability
[3] = Table 4, LL-37-derived peptides, CEM-SS cells
[4] = >100 μg/ml defined as HIV inactive
[5] = Table 5, BMAP-27-derived peptides, CEM-SS cells
[6] = read-out: TC50, Table 3, CEM-SS cells
[7] = Table 2, sequence shuffling, CEM-S cells
[8] = read-out: TC50, Table 2, CEM-S cells

GMASKAGAIAGKIAKVALKAL-NH2 [PGLa, reference compound]
EC50 (HIV-1IIIB; [1]): > 50.8 µM | CC50 (CEM-SS cells; [2]): > 50.8 µM

RLFDKIRQVIRKF-NH2 [Retro-FK13]
EC50 (HIV-1IIIB; [3]): > 58.1 µM | CC50 at 6 days (in vitro): 33.7 µM

H-GFKDLLKGAAKALVKTVLF-NH2 [Ascaphin-8, reference compound]
CC50 (CEM-SS cells): 2.9 µM

GIKEWKRIVQRIKDFLRNLV-NH2 [GI-20W17]
EC50 (HIV-1IIIB; [3]): 7.4 µM | CC50 at 6 days (in vitro): 23.6 µM

FFHHIFRGIVHVGKTIHRLVTG [Piscidin 1, reference compound]
CC50 (CEM-SS cells; [2]): 6.9 µM

GFGKAFHSVSNFAKKHKTA-NH2 [Styelin A, reference compound] [listing 1 of 2 here]
EC50 (HIV-1IIIB; [1]): > 48.5 µM

GFLSILKKVLPKVMAHMK-NH2 [Melectin, reference compound]
CC50 (CEM-SS cells; [2]): 7.75 µM

KRIVQRIKDFLR-NH2 [KR-12]
EC50 (HIV-1IIIB; [3]): > 63.5 µM | CC50 at 6 days (in vitro): > 63.5 µM

GFNEIVQDIEDFLQNLV-NH2 [GF17-]
EC50 (HIV-1IIIB; 1IIIB): > 25.1 µM | CC50 (in vitro): > 25.1 µM

GRFKRFRKKFKKLFKKIS-NH2 [BMAP-18]
EC50 (HIV-1IIIB; [4]): 0.8 µg/mL | EC50 (HIV-1IIIB; [5]): 0.35 µM | CC50 at 6 days (in vitro): 8.45 µM

GNNRPVYIPQPRPPHPRI [Apidaecin IA, reference compound]
EC50 (HIV-1IIIB; [1]): > 47.4 µM | CC50 (CEM-SS cells; [2]): > 47.4 µM

HVDKKVADKVLLLKQLRIMRLLTRL [Spinigerin, reference compound]
toxicity to human cells at (CEM-SS cells): ≥ 25 µM | CC50 (CEM-SS cells; human, 6 days): > 33.3 µM

LLKELWTKIKGAGKAVLGKIKGLL [Ponericin L2, reference compound]
EC50 (HIV-1IIIB; [1]): 1.4 µM | CC50 (CEM-SS cells; [2]): 24.7 µM

INLKAIAALAKKLL [Mastoparan M, reference compound]
EC50 (HIV-1IIIB; [1]): > 67.6 µM | CC50 (CEM-SS cells; [2]): > 67.6 µM

CC[C@@H](C)[C@@H](NC(=O)[C@H](CCCNC(=N)N)NC(=O)[C@H](CCC(N)=O)NC(=O)[C@@H](NC(=O)[C@@H](NC(=O)[C@H](CCCNC(=N)N)NC(=O)[C@H](CCCCN)NC(=O)[C@H](Cc1ccccc1)NC(=O)CN)[C@@H](C)CC)C(C)C)C(=O)N[C@@H](CCCCN)C(=O)N[C@@H](CC(=O)O)C(=O)N[C@@H](Cc1ccccc1)C(=O)N[C@@H](CC(C)C)C(=O)N[C@@H](CCCNC(=N)N)C(=O)N[C@@H](CC(N)=O)C(=O)N[C@@H](CC(C)C)C(=O)N[C@H](C(N)=O)C(C)C [GF-17d1]
EC50 (HIV-1IIIB; [3]): > 47.5 µM | CC50 at 6 days (in vitro; CEM-SS cells): 22.7 µM

GLRRLLGRLLRRLGRLLLR [GLR-19]
EC50 (HIV-1IIIB; Table 3, CEM-SS cells): 4.4 µM | CC50 (CEM-SS cells; [6]): 25.7 µM

GKPRPYSPRPTSHPRPIRV [Drosocin, reference compound]
EC50 (HIV-1IIIB; [1]): > 45.5 µM | CC50 (CEM-SS cells; [2]): > 45.5 µM

GLNTLKKVFQGLHEAIKLINNHVQ [Psuedin 1, reference compound] [listing 1 of 2 here]
CC50 (CEM-SS cells; [2]): > 36.8 µM

FRPALIVRTKGTRL [Hyposin-5, reference compound]
EC50 (HIV-1IIIB; 1IIIB): > 61.4 µM | CC50 (in vitro): > 61.4 µM

GRFKRFRKPFKKLFKKIS-NH2 [BMAP-18P9]
EC50 (HIV-1IIIB; [5]): 3.2 µM | CC50 at 6 days (in vitro): 18.9 µM

SWKSMAKKLKEYMEKLKQRA [Latarcin 3a, reference compound]
EC50 (HIV-1IIIB; [4]): ~100 µg/mL

SLSRFLRFLKIVYRRAF-NH2 [Peptide D98]
EC50 (HIV-1IIIB; [1]): 0.83 µM | CC50 (CEM-SS cells; [2]): 8.6 µM

GIKEFKREFQRIKDFLRNLV-NH2 [GI-20EF]
EC50 (HIV-1IIIB; [3]): 1.6 µM | CC50 at 6 days (in vitro): 9.9 µM

GWFDVVKHIAKRF-NH2 [Peptide D70] [listing 1 of 2 here]
CC50 (CEM-SS cells; [2]): 10.6 µM

FFGKVLKLIRKIF-NH2 [Peptide D76]
EC50 (HIV-1IIIB; [1]): 0.63 µM | CC50 at 6 days (in vitro): 6.78 µM

GLFDIIKKIAESW [Peptide B1]
EC50 (HIV-1IIIB; [7]): 11.7 µM | CC50 (CEM-SS cells; [8]): 37 µM

CC[C@@H](C)[C@@H](NC(=O)[C@H](CCCNC(=N)N)NC(=O)[C@H](CCC(N)=O)NC(=O)[C@@H](NC(=O)[C@@H](NC(=O)[C@H](CCCNC(=N)N)NC(=O)[C@H](CCCCN)NC(=O)[C@H](Cc1ccccc1)NC(=O)CN)[C@@H](C)CC)C(C)C)C(=O)N[C@@H](CCCCN)C(=O)N[C@@H](CC(=O)O)C(=O)N[C@@H](Cc1ccccc1)C(=O)N[C@H](CC(C)C)C(=O)N[C@@H](CCCNC(=N)N)C(=O)N[C@@H](CC(N)=O)C(=O)N[C@@H](CC(C)C)C(=O)N[C@H](C(N)=O)C(C)C [GF-17d2]
EC50 (HIV-1IIIB; [3]): > 47.5 µM | CC50 at 6 days (in vitro; CEM-SS cells): > 47.5 µM

NLVSGLIEARKYLEQLHRKLKNRKV [Peptide D88] [listing 1 of 2 here]
CC50 (CEM-SS cells; [2]): > 33.3 µM

LLGDLLRKSKEKIGKEFKRIVQR-NH2 [LL-23]
CC50 at 6 days (in vitro): > 35.4 µM

LLGDLLRKSKEKIGKEFKRIVQRIKDFLRNLVPRTES [LL-37, reference compound]
EC50 (HIV-1IIIB; [4]): 7.3 µg/mL | EC50 (HIV-1IIIB; [3]): 1.6 µM | CC50 at 6 days (in vitro): 18.4 µM

GRFKRFRKKFKKLFK-NH2 [BMAP-15]
EC50 (HIV-1IIIB; [5]): > 49.6 µM | CC50 at 6 days (in vitro): > 49.6 µM

H-GLADFLNKAVGKVVDFVKS-NH2 [Desertcolin 1, reference compound]
EC50 (HIV-1IIIB; 1IIIB): > 49.9 µM | CC50 (CEM-SS cells): > 49.9 µM

GIFDKLAKEISIW [Peptide B5]
EC50 (HIV-1IIIB; [7]): > 65.8 µM | CC50 (CEM-SS cells; [8]): > 65.8 µM

GFLDIIEKIAKSW [Peptide B7]
EC50 (HIV-1IIIB; [7]): 10.5 µM | CC50 (CEM-SS cells; [8]): > 65.8 µM

CC[C@H](C)[C@H](NC(=O)[C@H](CCCCN)NC(=O)[C@H](CCCCN)NC(=O)[C@H](Cc1ccccc1)NC(=O)[C@H](CC(C)C)NC(=O)[C@H](CCCCN)NC(=O)[C@H](CCCCN)NC(=O)[C@@H](NC(=O)[C@H](CCCCN)NC(=O)[C@H](CCCCN)NC(=O)[C@H](CCCNC(=N)N)NC(=O)[C@@H](NC(=O)[C@H](CCCNC(=N)N)NC(=O)[C@H](CCCCN)NC(=O)[C@H](Cc1ccccc1)NC(=O)[C@H](CCCNC(=N)N)NC(=O)CN)c1ccccc1)c1ccccc1)C(=O)N[C@@H](CO)C(N)=O [BMAP-18X6X10, GRFKRXRKKXKKLFKKIS] (H-GRFKR[Phg]RKK[Phg]KKLFKKIS-NH2)
EC50 (HIV-1IIIB; [5]): 0.68 µM | CC50 at 6 days (in vitro; CEM-SS cells): 10.2 µM

GLNTLKKVFQGLHEAIKLINNHVQ [Psuedin 1, reference compound] [listing 2 of 2 here]
EC50 (HIV-1IIIB; [1]): 35.7 µM

GLWEKIDKFASII [Peptide B2]
EC50 (HIV-1IIIB; [7]): > 65.8 µM | CC50 (CEM-SS cells; [8]): > 65.8 µM

KRIVQRIKDFLRNLVPRTES [KR-20]
CC50 at 6 days (in vitro): > 40.5 µM

GFGKAFHSVSNFAKKHKTA-NH2 [Styelin A, reference compound] [listing 2 of 2 here]
CC50 (CEM-SS cells; [2]): > 48.5 µM

GIWDTIKSMGKVFAGKILQNL-NH2 [Brevinin-2-related, reference compound]
CC50 (CEM-SS cells): 7.42 µM

GIWSDLAEIIKKF [Peptide B6]
CC50 (CEM-SS cells; [8]): > 65.8 µM

GWFDIIKKIASEL [Peptide B4]
EC50 (HIV-1IIIB; 1IIIB): 10.7 µM | CC50 (CEM-SS cells): 38.9 µM

GLRSRIWLWVLLMIWQESNRFKRM [DRS S9r3]
EC50 (HIV-1IIIB; Table 3, CEM-SS cells): 1.25 µM | CC50 (CEM-SS cells; [6]): > 32.1 µM

GWFDVVKHIAKRF-NH2 [Peptide D70] [listing 2 of 2 here]
EC50 (HIV-1IIIB; [1]): 2.99 µM

H-GLLGLLGSVVSHVVPAIVGHF-NH2 [Maculatin 1.3, reference compound]
CC50 (CEM-SS cells): 8.02 µM

ILGPVLGLVSDTLDDVLGIL [Maximin H5, reference compound]
EC50 (HIV-1IIIB; Table 3, CEM-SS cells): > 49.4 µM | CC50 (CEM-SS cells; [6]): > 49.4 µM

NLVSGLIEARKYLEQLHRKLKNRKV [Peptide D88] [listing 2 of 2 here]
EC50 (HIV-1IIIB; [1]): > 33.3 µM

GLRSKIWLWVLLMIWQESNKFKKM [DRS S9, reference compound]
EC50 (HIV-1IIIB; Table 3, CEM-SS cells): 31.6 µM | CC50 (CEM-SS cells; [6]): > 32.9 µM

RQRVEELSKFSKKGAAARRRK [Misgurin, reference compound]
EC50 (HIV-1IIIB; [1]): > 40 µM | CC50 (CEM-SS cells; [2]): > 40 µM

VDKPDYRPRPRPPNM [Metalnikowin I, reference compound]
EC50 (HIV-1IIIB; [1]): > 54.4 µM | CC50 (CEM-SS cells; [2]): > 54.4 µM

IKWKKLLRAAKRIL-NH2 [Peptide D74]
EC50 (HIV-1IIIB; [1]): > 57.6 µM | CC50 (CEM-SS cells; [2]): 1.3 µM

GAWKNFWSSLRKGFYDGEAGRAIRR [Peptide D94, reference compound]
EC50 (HIV-1IIIB; [1]): > 34.1 µM | CC50 (CEM-SS cells; [2]): > 34.1 µM

GIIDIAKKLFESW [Peptide B3]
EC50 (HIV-1IIIB; 1IIIB): 20.1 µM | CC50 (CEM-SS cells): > 65.8 µM

GWLKKIESIIDAF [Peptide B8]
EC50 (HIV-1IIIB; [7]): 29.5 µM | CC50 (CEM-SS cells; [8]): > 65.8 µM

ILGPVLGLVSRTLRRVLGIL [Maximin H5r3]
EC50 (HIV-1IIIB; Table 3, CEM-SS cells): 2.2 µM | CC50 (CEM-SS cells; [6]): 8.7 µM

KGRGKQGGKVRAKAKTRSS [Parasin I, reference compound]
EC50 (HIV-1IIIB; [1]): > 50 µM | CC50 (CEM-SS cells; [2]): > 50 µM

RPKHPIKHQGLPQEVLNENLLRF [Isracidin, reference compound]
EC50 (HIV-1IIIB; [1]): > 36.2 µM | CC50 (CEM-SS cells; [2]): > 36.2 µM
